Each block holds one compound with its values, some of them ahead of it.
Key:
[1] = Antiproliferative against in mouse Ba/F3 EGFR-Del19/T790M/C797S cells; assay type: functional, cell-based
[2] = biological target: Epidermal growth factor receptor (Homo sapiens, UniProt P00533, C797S/EX19DEL/T790M); assay: Inhibition of EGFR Del19/T790M/C797S triple mutant (unknown origin)
[3] = Half life in Ba/F3 EGFR cells xenografted nude mouse liver microsomes; assay type: ADME
[4] = Inhibition of p-EGFR Del19/T790M/C797S triple mutant in mouse BaF3 cells; assay type: cell-based
[5] = biological target: Epidermal growth factor receptor (Homo sapiens, UniProt P00533); assay: Inhibition of wild type EGFR (unknown origin)
[6] = biological target: T1, Epidermal growth factor receptor (Homo sapiens, UniProt P00533, C797S/L858R/T790M); assay: Inhibition of EGFR L858R/T790M/C797S triple mutant (unknown origin)
[7] = biological target: T1, Epidermal growth factor receptor; assay: Inhibition of EGFR L858R/T790M/C797S triple mutant (unknown origin) expressed in mouse BaF3 cells; assay type: cell-based
[8] = Antiproliferative against in mouse Ba/F3 EGFR-T790M/C797S/L858R cells; assay type: functional, cell-based
[9] = Oral bioavailability in rat relative to control; assay type: ADME, organism-based; conditions: in vivo
[10] = Oral bioavailability in mouse relative to control; assay type: ADME, organism-based; conditions: in vivo
[11] = biological target: T1, Epidermal growth factor receptor; assay: Inhibition of EGFR L858R/T790M/C797S triple mutant (unknown origin) in human NCI-H1975 cell; assay type: cell-based
[12] = biological target: T2, Epidermal growth factor receptor (Homo sapiens, UniProt P00533, L858R/T790M); assay: Inhibition of EGFR L858R/T790M double mutant (unknown origin) in human NCI-H1975 cell; assay type: cell-based
[13] = biological target: T1, Epidermal growth factor receptor; assay: Inhibition of EGFR L858R/T790M/C797S triple mutant (unknown origin) by HTRF method
[14] = biological target: Epidermal growth factor receptor (Homo sapiens, UniProt P00533, L858R); assay: Inhibition of EGFR L858R mutant (unknown origin)
BaF3 [15] = assay: Antiproliferative against in mouse BaF3 EFGR Del19/T790M/C797S cell; assay type: functional, cell-based
NCI-H1975 = assay: Growth inhibition of human NCI-H1975 cells; assay type: functional, cell-based
Homo sapiens = species: Homo sapiens; assay: Selectivity ratio of IC50 for EGFR Del19/T790M/C797S triple mutant (unknown origin) to wild type EGFR (unknown origin)
[16] = biological target: T2, Epidermal growth factor receptor; assay: Inhibition of EGFR L858R/T790M double mutant (unknown origin)
BaF3 [17] = assay: Antiproliferative against in mouse BaF3 cells harbouring Del19/T790M/C797S triple mutant at 100 nM relative to control; assay type: functional
BaF3 [18] = assay: cells; conditions: Mus musculus
[19] = Inhibition of EGFR L858R/T790M/C797S triple mutant (unknown origin) in mouse BaF3 cells; assay type: cell-based

T1 sequence (P00533 25-1210 T790M/C797S/L858R limits assumed): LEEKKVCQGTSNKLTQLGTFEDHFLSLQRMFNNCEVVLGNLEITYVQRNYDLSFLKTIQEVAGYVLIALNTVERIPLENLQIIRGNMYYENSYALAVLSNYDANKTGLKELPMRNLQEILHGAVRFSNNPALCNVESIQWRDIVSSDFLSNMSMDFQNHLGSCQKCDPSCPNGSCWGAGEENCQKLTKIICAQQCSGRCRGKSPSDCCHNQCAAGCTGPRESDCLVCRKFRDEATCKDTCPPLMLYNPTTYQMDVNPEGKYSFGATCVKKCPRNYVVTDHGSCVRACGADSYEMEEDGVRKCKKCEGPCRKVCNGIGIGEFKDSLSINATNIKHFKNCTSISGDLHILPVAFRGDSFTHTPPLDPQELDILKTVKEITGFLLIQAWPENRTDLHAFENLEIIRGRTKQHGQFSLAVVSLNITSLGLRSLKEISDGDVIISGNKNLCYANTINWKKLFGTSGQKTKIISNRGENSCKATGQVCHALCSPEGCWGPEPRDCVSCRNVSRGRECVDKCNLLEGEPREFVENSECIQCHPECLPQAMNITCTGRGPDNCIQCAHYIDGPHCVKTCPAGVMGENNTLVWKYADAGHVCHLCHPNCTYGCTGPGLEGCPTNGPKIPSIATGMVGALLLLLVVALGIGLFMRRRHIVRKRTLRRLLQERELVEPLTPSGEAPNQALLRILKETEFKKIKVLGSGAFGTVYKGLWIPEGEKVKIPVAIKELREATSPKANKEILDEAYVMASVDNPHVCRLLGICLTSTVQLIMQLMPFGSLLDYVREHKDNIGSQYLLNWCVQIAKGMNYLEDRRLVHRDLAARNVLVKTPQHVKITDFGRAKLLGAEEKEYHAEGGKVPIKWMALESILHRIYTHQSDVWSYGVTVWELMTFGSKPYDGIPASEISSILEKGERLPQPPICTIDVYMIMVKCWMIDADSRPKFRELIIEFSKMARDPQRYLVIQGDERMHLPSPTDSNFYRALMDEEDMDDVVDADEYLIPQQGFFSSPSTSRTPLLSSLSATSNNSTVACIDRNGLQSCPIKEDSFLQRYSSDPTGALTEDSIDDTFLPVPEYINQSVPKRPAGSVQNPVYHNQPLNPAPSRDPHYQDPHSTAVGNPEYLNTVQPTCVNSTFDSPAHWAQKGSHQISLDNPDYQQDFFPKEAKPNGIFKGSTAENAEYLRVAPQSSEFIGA
Sequence of Epidermal growth factor receptor (Homo sapiens, UniProt P00533) (P00533 whole entry): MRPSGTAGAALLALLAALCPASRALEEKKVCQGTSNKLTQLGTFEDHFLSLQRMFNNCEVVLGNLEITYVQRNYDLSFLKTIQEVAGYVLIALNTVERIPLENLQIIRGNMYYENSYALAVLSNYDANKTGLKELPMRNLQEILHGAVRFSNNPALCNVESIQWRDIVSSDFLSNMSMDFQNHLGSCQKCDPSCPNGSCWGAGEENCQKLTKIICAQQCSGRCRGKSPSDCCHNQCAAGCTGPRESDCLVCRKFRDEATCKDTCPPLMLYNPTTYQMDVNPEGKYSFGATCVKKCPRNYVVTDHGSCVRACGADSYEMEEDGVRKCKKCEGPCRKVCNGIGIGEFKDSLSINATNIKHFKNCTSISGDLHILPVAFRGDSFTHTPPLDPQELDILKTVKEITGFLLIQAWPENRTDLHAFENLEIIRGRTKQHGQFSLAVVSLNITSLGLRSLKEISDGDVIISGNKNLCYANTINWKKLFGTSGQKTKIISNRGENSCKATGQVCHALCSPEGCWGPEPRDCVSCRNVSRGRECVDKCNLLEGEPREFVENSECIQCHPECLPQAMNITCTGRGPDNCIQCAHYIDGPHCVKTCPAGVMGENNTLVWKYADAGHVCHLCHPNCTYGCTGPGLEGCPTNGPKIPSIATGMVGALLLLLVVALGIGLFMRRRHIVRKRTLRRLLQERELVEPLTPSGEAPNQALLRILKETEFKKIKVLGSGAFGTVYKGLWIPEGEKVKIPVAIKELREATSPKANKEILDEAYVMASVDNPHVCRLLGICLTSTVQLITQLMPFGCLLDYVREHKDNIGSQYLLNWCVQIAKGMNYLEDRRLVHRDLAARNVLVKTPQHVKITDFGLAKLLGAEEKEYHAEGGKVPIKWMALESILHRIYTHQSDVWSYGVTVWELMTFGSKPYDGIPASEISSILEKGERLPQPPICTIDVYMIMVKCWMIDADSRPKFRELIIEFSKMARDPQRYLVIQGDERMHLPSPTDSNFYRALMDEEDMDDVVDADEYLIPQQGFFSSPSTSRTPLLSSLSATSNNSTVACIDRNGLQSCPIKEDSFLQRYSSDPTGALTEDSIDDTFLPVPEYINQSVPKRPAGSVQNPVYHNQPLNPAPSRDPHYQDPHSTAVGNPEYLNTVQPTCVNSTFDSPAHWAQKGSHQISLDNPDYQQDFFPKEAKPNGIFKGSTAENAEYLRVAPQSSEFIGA
Sequence of Epidermal growth factor receptor (Homo sapiens, UniProt P00533, C797S/EX19DEL/T790M) (P00533 whole entry, looked up, stated change not applied): as the sequence (P00533 whole entry) above
T2 sequence (P00533 25-1210 T790M/L858R limits assumed): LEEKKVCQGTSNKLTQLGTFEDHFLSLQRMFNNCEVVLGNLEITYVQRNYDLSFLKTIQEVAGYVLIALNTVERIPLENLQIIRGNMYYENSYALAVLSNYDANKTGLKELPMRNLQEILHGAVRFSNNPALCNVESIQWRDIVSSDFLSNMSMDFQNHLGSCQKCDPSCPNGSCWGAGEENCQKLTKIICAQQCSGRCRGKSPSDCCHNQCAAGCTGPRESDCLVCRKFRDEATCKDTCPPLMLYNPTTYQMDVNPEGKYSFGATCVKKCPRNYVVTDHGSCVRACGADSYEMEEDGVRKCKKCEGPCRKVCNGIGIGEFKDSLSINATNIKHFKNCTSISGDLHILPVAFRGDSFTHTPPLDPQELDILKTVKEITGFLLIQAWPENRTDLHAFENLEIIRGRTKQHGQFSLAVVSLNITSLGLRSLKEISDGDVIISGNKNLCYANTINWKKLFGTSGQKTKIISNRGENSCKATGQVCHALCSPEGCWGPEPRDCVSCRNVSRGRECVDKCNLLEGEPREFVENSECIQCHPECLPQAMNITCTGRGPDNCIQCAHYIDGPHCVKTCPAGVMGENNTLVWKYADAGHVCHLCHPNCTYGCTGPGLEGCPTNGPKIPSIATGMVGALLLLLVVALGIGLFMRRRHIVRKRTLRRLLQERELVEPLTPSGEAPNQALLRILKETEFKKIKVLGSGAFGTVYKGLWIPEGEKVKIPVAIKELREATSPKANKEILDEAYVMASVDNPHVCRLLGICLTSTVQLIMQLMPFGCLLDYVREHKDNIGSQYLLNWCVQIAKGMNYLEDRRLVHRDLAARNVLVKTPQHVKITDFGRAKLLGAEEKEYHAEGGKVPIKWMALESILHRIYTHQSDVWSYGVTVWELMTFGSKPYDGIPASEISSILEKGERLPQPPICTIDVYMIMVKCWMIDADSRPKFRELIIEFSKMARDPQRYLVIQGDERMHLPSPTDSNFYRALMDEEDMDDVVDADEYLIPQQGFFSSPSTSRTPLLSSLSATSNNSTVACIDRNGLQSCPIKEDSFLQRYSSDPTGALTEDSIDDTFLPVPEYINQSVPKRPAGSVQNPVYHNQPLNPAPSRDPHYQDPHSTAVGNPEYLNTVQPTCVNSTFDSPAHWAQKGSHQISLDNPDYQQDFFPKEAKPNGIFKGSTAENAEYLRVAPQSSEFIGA

IC50 [2]: 0.212 nM | half-life [3]: 20.5 h
Structure (SMILES): CCc1cc(Nc2ncc(Br)c(Nc3ccc4nccnc4c3P(C)(C)=O)n2)c(OC)cc1N1CCC(N2CCN(C)CC2)CC1
IC50 [1]: 9 nM

IC50 [4]: ≤ 100 nM
Structure (SMILES): CN1CC2(CCN(c3ccc(Nc4ncc(Cl)c(Nc5ccccc5P(C)(C)=O)n4)cc3Br)CC2)C1
IC50 [1]: ≤ 100 nM

IC50 [5]: ≤ 0.3 nM
Structure (SMILES): OCCCCc1nc(-c2ccc(F)cc2)c(-c2ccnc3[nH]c(-c4ccccc4)cc23)[nH]1

IC50 [5]: ≥ 50000 nM
Structure (SMILES): COC(=O)c1ccc(O)c(-c2nc(NCc3cccnc3)c3ccccc3n2)c1

Structure (SMILES): COc1cc2c(Nc3ccc(NC(=O)C(c4cc(F)ccc4F)N4Cc5ccccc5C4=O)cc3F)ncnc2cc1OCC1CCN(C)CC1 (configuration not stated)
IC50 [1]: 3.54 nM

IC50 [6]: 38.1 nM
Structure (SMILES): CCC(=O)N[C@H]1CC[C@H](n2c(=O)c(-c3ccccc3Cl)cc3ccc(Nc4ccc(N5CCN(C)CC5)c(C)c4)cc32)CC1

IC50 [7]: 662 nM | IC50 [6]: 27.5 nM | IC50 [5]: ≥ 1000 nM
Structure (SMILES): CCC(=O)N1CCC[C@@H](N2CC(c3cccc(F)c3Cl)=C(C)c3cnc(Nc4ccc(N5CCN(C)CC5)c(C)c4)nc32)C1

Structure (SMILES): C=CC(=O)Nc1cc(Nc2nccc(-c3cn(C)c4ccccc34)n2)c(OC)cc1N(C)CCN(C)C [OSIMERTINIB]
IC50 [1]: 730 nM | IC50 [8]: 1080 nM

IC50 [6]: 40 nM
Structure (SMILES): CN1CCN(c2ccc(Nc3ncc4nc(Nc5ccccc5)n([C@@H]5CCN(S(=O)(=O)C6CC6)C5)c4n3)cc2)CC1

IC50 [6]: 48.2 nM | IC50 [2]: 12 nM | IC50 [5]: 540 nM
Structure (SMILES): Cn1cc(-c2cc(C(=O)/N=c3\[nH]c4ccccc4n3[C@H]3CC[C@H](O)CC3)ccn2)cn1
IC50 [1]: 12 nM | IC50 [8]: 48.2 nM

IC50 [6]: 47.8 nM
Structure (SMILES): CC(=O)N[C@H]1CC[C@H](n2c(=O)c(-c3ccccc3Cl)cc3ccc(Nc4ccc(N5CCN(C)CC5)c(C)c4)cc32)CC1

IC50 [2]: 23 nM | IC50 [5]: 50000 nM
Structure (SMILES): N#Cc1ccc(O)c(-c2nc(NCc3cccnc3)c3ccccc3n2)c1

bioavailability [9]: 18.6% | bioavailability [10]: 18.6% | IC50 [11]: 1200 nM | IC50 [12]: 3300 nM | IC50 [13]: 630 nM
Structure (SMILES): N#Cc1ccc(O)c(-c2nc(NCc3ncccn3)c3ccccc3n2)c1

IC50 [4]: ≤ 100 nM
Structure (SMILES): C=C(C)c1cnc(Nc2ccc(N3CCC4(CC3)CN(C)C4)cc2)nc1Nc1ccccc1P(C)(C)=O
IC50 [1]: ≤ 100 nM

IC50 [14]: 1.2 nM
Structure (SMILES): CN(C)CCOc1ccc(Nc2ncc3nc(Sc4ccc(F)cc4)n(C4CCOCC4)c3n2)cc1

Structure (SMILES): C=CC(=O)Nc1cc(Nc2ncc(C(=O)OC(C)C)c(-c3cc4ccccc4n3C)n2)c(OCC(F)(F)F)nc1N(C)CCN(C)C
IC50 [1]: 9 nM

IC50 [4]: 0.6 nM
Structure (SMILES): Cc1cc2cc(n1)-c1cnn(C)c1OCCC[C@@H](C)CN1/C(=N/C2=O)Nc2ccc(CN3CCN(C)CC3)cc21

IC50 (BaF3 [15]): 250 nM | IC50 [4]: 790 nM
Structure (SMILES): CC(C)(O)Cn1/c(=N/C(=O)c2cc(F)cc(-c3cccnc3)c2)[nH]c2ccccc21

IC50 [5]: 1000 nM
Structure (SMILES): Oc1ccc(-c2nc(-c3ccnc4[nH]c(-c5ccccc5)cc34)c(-c3ccc(F)cc3)[nH]2)cc1

IC50 [4]: ≤ 100 nM
Structure (SMILES): Cc1cc(Nc2ncc(Cl)c(Nc3ccccc3P(C)(C)=O)n2)ccc1N1CCC2(CC1)CN(C)C2
IC50 [1]: ≤ 100 nM

IC50 [6]: 662 nM | IC50 (NCI-H1975): 400 nM
Structure (SMILES): CN(C)C1CCN(c2ccc(Nc3cc4c(N5CCC(CO)CC5)nc(Nc5ccc(F)cc5)nc4cn3)nc2)CC1

Ratio IC50 (Homo sapiens): 1000 | IC50 [2]: 17.9 nM | IC50 [5]: ≥ 50000 nM
Structure (SMILES): N#Cc1ccc(O)c(-c2nc(NCc3cnccn3)c3ccccc3n2)c1

IC50 [7]: 5420 nM | IC50 [6]: 53 nM | IC50 [5]: 1620 nM
Structure (SMILES): CC(C)(C)n1cc(-c2cncc3ccccc23)c2c(N)ncnc21

IC50 [6]: 5 nM
Structure (SMILES): O=C(Nc1nccs1)C(c1ncn2c1CCC2)N1Cc2c(F)cc(C#Cc3ccc(CN4CCC(CO)CC4)cc3)cc2C1=O (configuration not stated)

IC50 [6]: 52 nM | IC50 [5]: > 1000 nM
Structure (SMILES): O=C1c2cc(F)ccc2Nc2ccccc2N1Cc1ccccc1

Ratio IC50 (Homo sapiens): 163
Structure (SMILES): Oc1ccccc1-c1nc(NCc2cccnc2)c2ccccc2n1

IC50 [6]: 8.5 nM
Structure (SMILES): COc1cc(N(C)CCN(C)C)ccc1Nc1nccc(-c2cn(CCCO)c3ccccc23)n1

IC50 [16]: 15 nM
Structure (SMILES): O=C(Nc1nccs1)C(c1ccccc1)N1Cc2ccc(-c3ccc4[nH]ccc4c3)cc2C1=O (configuration not stated)

IC50 (BaF3 [18]): 30 nM
Structure (SMILES): COc1cc(N2CCC(N3CCN(C)CC3)CC2)ccc1Nc1ncc(Cl)c(Nc2ccccc2P(C)(C)=O)n1 [BRIGATINIB]
inhibition at 0.1 µM (BaF3 [17]): 50%

IC50 [19]: 210 nM
Structure (SMILES): CCC(=O)N[C@H]1CC[C@@H](N2C(=O)N(c3ccccc3Cl)Cc3cnc(Nc4ccc(N5CCN(C)CC5)c(C)c4)nc32)CC1

IC50 [5]: ≤ 0.2 nM
Structure (SMILES): OCCCc1nc(-c2ccc(F)cc2)c(-c2ccnc3[nH]c(-c4ccccc4)cc23)[nH]1

IC50 [6]: 18 nM
Structure (SMILES): CN1CCN(c2ccc(Nc3ncc4nc(Nc5ccccc5)n([C@H]5CCN(S(=O)(=O)C6CC6)C5)c4n3)cc2)CC1

IC50 [6]: 22 nM
Structure (SMILES): CN1CCN(c2ccc(Nc3ncc4nc(Nc5ccc(F)cc5)n([C@H]5CCN(S(=O)(=O)C6CC6)C5)c4n3)cc2)CC1

Structure (SMILES): C=CC(=O)Nc1cc(Nc2ncc(C(=O)OC(C)C)c(-c3cc4ccccc4n3C3CC3)n2)c(OCC(F)(F)F)nc1N(C)CCN(C)C
IC50 [1]: 10 nM

IC50 [5]: ≤ 0.3 nM
Structure (SMILES): OCCc1nc(-c2ccc(F)cc2)c(-c2ccnc3[nH]c(-c4ccccc4)cc23)[nH]1

half-life [3]: 10 h
Structure (SMILES): COc1cc(N2CCC(N3CCN(C)CC3)CC2)c(C)cc1Nc1ncc(Br)c(Nc2ccc3nccnc3c2P(C)(C)=O)n1

IC50 [5]: 287 nM
Structure (SMILES): CSc1nc(-c2ccc(F)cc2)c(-c2ccnc3[nH]c(-c4ccccc4)cc23)[nH]1

Reference: ChEMBL document CHEMBL5143505, “Emerging Approaches to Overcome Acquired Drug Resistance Obstacles to Osimertinib in Non-Small-Cell Lung Cancer” (J Med Chem, 2022)
